From patent publication US5292521A, “Solid oral preparation containing a pyrrolidine derivative with a catechol group” (priority 1990, dated 1994)
Where two headings read alike, the source gives them in different places.

Tests used:
[1] = Oral administration to fasted beagles of compound (II) or (III) with ascorbic acid, plasma drug disposition parameters (Experimental Examples 5 and 6); conditions: for AUC(0-t) at 8 h / Cmax / Tmax: po, 3 mg/kg, n=2; for AUC(0-t) at 8 h: AUC (0-8 hr) mean ± SE; for Cmax: Cmax mean ± SE; for Tmax: Tmax mean ± SE
Procedure: The term "bioavailability" herein is defined as follows: a plasma concentration-time curve of a drug after being administered once is prepared in each case of administration by intravenous injection and oral administration with the same amount of the drug, and the availability is represented by the ratio (F) of the area under the plasma concentration-time curve in the case of oral administration ([AUC]PO)to the area under the plasma concentration-time curve in the case of intravenous injection ([AUC]IV): [formula]
The ratio of an AUC value obtained when one or more compounds selected from the group consisting of organic acids and salts thereof are added to an AUC value obtained when no such compound(s) is (are) added will be referred to as "addition effect ratio".
350 mg of ascorbic acid and 70 mg of lactose were added to 70 mg of compound (II) and the mixture was thoroughly pulverized and mixed in a mortar. The mixture was filled in each of No. 2 gelatin capsules in such an amount that the dose of compound (II) would be 3 mg/kg to obtain a preparation.
A control sample free from ascorbic acid was prepared by preparing a powder of 7-fold dilution with lactose (70 mg of compound (II) plus 420 mg of lactose) and filled in No. 2 capsules in such an amount that the dose of compound (II) would be 3 mg/kg to obtain a preparation.
(a) Administration and collection of blood sample
(§1) Four beagles were divided into two groups (i.e. a group to which ascorbic acid was given and a control group) after fasting overnight (14 hours) and a preparation comprising 3 mg/kg of compound (II) and 15 mg/kg of ascorbic acid or a control preparation comprising no ascorbic acid was given together with 30 ml of water by oral administration. No food was given also in the course of collection of blood sample. 3 ml of the whole blood was sampled through a vein of a foreleg by means of a heparinized syringe, immediately cooled with ice/water and centrifuged (1200 rpm, 3 min, 4° C.). The blood plasma was separated and a citrate buffer solution (pH 3.5, 100 μl) was added thereto to adjust the pH to 5.0. The plasma thus treated was kept frozen at -20° C. The points of collection of blood samples were before the administration and 10, 20, 30 and 45 minutes and 1, 1.5, 2, 3, 4, 6 and 8 hours after the administration.
(b) Method of analysis of concentration of unchanged substance in blood plasma
(c) HPLC determination conditions
The drug disposition parameters of each sample were determined from the data obtained by the oral administration of the preparation comprising 3 mg/kg of compound (II) and 15 mg/kg of ascorbic acid or a control preparation comprising no ascorbic acid to beagles while they were kept fasting.
350 mg of ascorbic acid and 70 mg of lactose were added to 70 mg of compound (III) and the mixture was thoroughly pulverized and mixed in a mortar. The mixture was filled in each of No. 2 gelatin capsules in such an amount that the dose of compound (III) would be 3 mg/kg to obtain a preparation.
A control sample free from ascorbic acid was prepared by preparing a powder of 7-fold dilution with lactose (70 mg of compound (III) plus 420 mg of lactose) and filled in No. 2 capsules in such an amount that the dose of compound (III) would be 3 mg/kg to obtain a preparation.
as §1, with “(III)” for “(II)”, “syringe,” for “syringe, immediately”, “5.0.” for “5.0. The plasma thus treated was kept frozen at -20° C. The points of collection of blood samples were before the administration and 10, 20, 30 and 45 minutes and 1, 1.5, 2, 3, 4, 6 and 8 hours after the administration.”

[2] = Drug disposition after intravenous injection to beagles, plasma concentration-time curve (Experimental Example 1); assay type: in vivo; conditions: dog, 1 mg/kg iv; for half-life: iv, 1 mg/kg
Procedure: 1 mg/kg of compound (VIII) was administered to beagles by intravenous injection and the plasma concentration-time curve thereof of prepared to find that the half-life composed of three phases (phases a, b and c).

[3] = Correlation between AUC and oral dose in beagles, powder of ten-fold dilution with lactose in capsule; bioavailability from regression line (Experimental Example 2); assay type: in vivo; conditions: oral
Procedure: Compound (VIII) or compound V was formulated into a powder of ten-fold dilution with lactose. It was given to beagles in an amount ranging from 0.3 to 30 mg/kg as a capsule by oral administration and the plasma concentration-time curve thereof was prepared. The regression line equation was as follows: […]

[4] = dog, plasma, 3 mg/kg oral + ascorbic acid 15 mg/kg
[5] = dog, plasma, 3 mg/kg oral, none (control)
[6] = dog, in vivo, 3 mg/kg oral + ascorbic acid 15 mg/kg
[7] = dog, in vivo, 3 mg/kg oral, none (control)

CS(=O)(=O)O.Oc1ccc(C2CNCCc3c2cc(O)c(O)c3Cl)cc1 (stereo not drawn) [compound (III), 6-chloro-2,3,4,5-tetrahydro-1-(4-hydroxyphenyl)-1H-3-benzazepine-7,8-diol methanesulfonate, reference compound]
increase of AUC value ([1]; dog, in vivo): about 3.3 -fold
AUC(0-t) at 8 h [1, 4]: 197 ± 12.5 ng·h/mL
AUC(0-t) at 8 h [1, 5]: 59.8 ± 16.9 ng·h/mL
Cmax [1, 4]: 91.9 ± 0.4 ng/mL
Cmax [1, 5]: 39 ± 16.6 ng/mL
Tmax [1, 4]: 30 ± 15 min
Tmax [1, 5]: 45 ± 15 min

Br.Oc1ccc(C2CNCc3c2ccc(O)c3O)cc1O (stereo not drawn) [compound (II), 7,8-dihydroxy-4-(3,4-dihydroxyphenyl)-1,2,3,4-tetrahydroisoquinoline hydrobromide]
Addition effect (AUC ratio) ([1]; 3 mg/kg oral + ascorbic acid 15 mg/kg): 1.39
Addition effect (AUC ratio) ([1]; 3 mg/kg oral, none (control)): 1.00
AUC(0-t) at 8 h [1, 6]: 116.6 ± 0.1 ng·h/mL
AUC(0-t) at 8 h [1, 7]: 83.6 ± 4.7 ng·h/mL
Cmax [1, 6]: 89.6 ± 11.8 ng/mL
Cmax [1, 7]: 95.6 ± 42.2 ng/mL
Tmax [1, 6]: 37.8 ± 7.8 min
Tmax [1, 7]: 25.2 ± 5.4 min
increase of AUC value ([1]; with ascorbic acid): about 1.4 -fold

Br.Oc1ccc([C@@H]2CNC[C@H]2c2cccc(O)c2Cl)cc1O (relative stereo) [compound (VIII), trans-3-(2-chloro-3-hydroxyphenyl)-4-(3,4-dihydroxyphenyl)pyrrolidine hydrobromide]
clearance ([2]; read-out: CLtotal): 78 mL/min/kg
C0 ([2]; read-out: CP^0): 2290 ng/mL
MRT ([2]; read-out: MRT (mean residence time in the plasma) (converted)): 14.5 min
Vd ([2]; read-out: Vc): 0.44 L/kg
half-life ([2]; phase a, read-out: t1/2a): 1.3 min
half-life ([2]; phase b, read-out: t1/2b): 8.11 min
half-life ([2]; phase c, read-out: t1/2c): 26.9 min
bioavailability ([3]; dog, plasma, efficacious dose around 3 to 5 mg/kg): 4 to 5%
gradient of regression line log(AUC) vs log(dose) ([3]; 0.3 to 30 mg/kg): 1.218
increase of AUC value when the dose is increased 10-fold ([3]; 0.3 to 30 mg/kg): 16.5 -fold
intercept of regression line log(AUC) vs log(dose) ([3]; 0.3 to 30 mg/kg): 0.894
